Test results: PubChem BioAssay AID330 (DTP/NCI, 2004)
Values joined by “and” are separate entries in the source; they are usually repeats but may differ in a detail not shown here. Identical values can stand only once. Inconclusive results and toxic doses are left out.

Tested on: P388 leukemia ip, CD2F1 mice, survival T/C
Experiment: NCI In Vivo Anticancer Drug Screen. Data for tumor model P388 Leukemia (intraperitoneal) in CD2F1 (CDF1) mice
Details: endpoint: median survival time, higher = longer survival
Method in brief: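 Mice carrying the transplanted tumor received test compound or vehicle. Survival was recorded in each group, and the value is the treated-group measurement divided by that of the vehicle-treated control group.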

[1] = dose: 50.0 mg/kg/injection, schedule: Q01DX009 (ip), vehicle: saline
[2] = dose: 100.0 mg/kg/injection, schedule: Q01DX009 (ip), vehicle: saline
[3] = dose: 200.0 mg/kg/injection, schedule: Q01DX009 (ip), vehicle: saline
[4] = dose: 50.0 mg/kg/injection, schedule: Q01DX005 (ip), vehicle: saline with Tween-80
[5] = dose: 100.0 mg/kg/injection, schedule: Q01DX005 (ip), vehicle: saline with Tween-80
[6] = dose: 50.0 mg/kg/injection, schedule: Q01DX009 (ip), vehicle: saline with Tween-80
[7] = dose: 100.0 mg/kg/injection, schedule: Q01DX009 (ip), vehicle: saline with Tween-80
[8] = dose: 200.0 mg/kg/injection, schedule: Q01DX009 (ip), vehicle: saline with Tween-80
[9] = dose: 6.25 mg/kg/injection, schedule: Q01DX009 (ip), vehicle: Klucel (hydroxypropylcellulose) (HPC)
[10] = dose: 12.5 mg/kg/injection, schedule: Q01DX009 (ip), vehicle: Klucel (hydroxypropylcellulose) (HPC)
[11] = dose: 50.0 mg/kg/injection, schedule: Q01DX009 (ip), vehicle: Klucel (hydroxypropylcellulose) (HPC)
[12] = dose: 100.0 mg/kg/injection, schedule: Q01DX009 (ip), vehicle: Klucel (hydroxypropylcellulose) (HPC)
[13] = dose: 200.0 mg/kg/injection, schedule: Q01DX009 (ip), vehicle: Klucel (hydroxypropylcellulose) (HPC)
[14] = dose: 50.0 mg/kg/injection, schedule: Q01DX005 (ip), vehicle: saline
[15] = dose: 100.0 mg/kg/injection, schedule: Q01DX005 (ip), vehicle: saline
[16] = dose: 200.0 mg/kg/injection, schedule: Q01DX005 (ip), vehicle: saline
[17] = dose: 12.5 mg/kg/injection, schedule: Q01DX005 (ip), vehicle: saline with Tween-80
[18] = dose: 25.0 mg/kg/injection, schedule: Q01DX005 (ip), vehicle: saline with Tween-80
[19] = dose: 50.0 mg/kg/injection, schedule: Q01DX009 (ip), vehicle: distilled water + Tween-80
[20] = dose: 25.0 mg/kg/injection, schedule: Q01DX005 (ip), vehicle: saline

Compound: Cl
- T/C (dose: 6.25 mg/kg/injection, schedule: Q01DX009 (ip), vehicle: saline with Tween-80): 95 % of control
- T/C (dose: 0.01 % in 0.5 ml injection vol, schedule: Q01DX009 (ip), vehicle: water): 100 % of control
- T/C (dose: 12.5 mg/kg/injection, schedule: Q01DX009 (ip), vehicle: saline with Tween-80): 100 % of control
- T/C (dose: 0.02 % in 0.5 ml injection vol, schedule: Q01DX009 (ip), vehicle: water): 101 % of control and 92 % of control
- T/C (dose: 25.0 mg/kg/injection, schedule: Q01DX009 (ip), vehicle: saline with Tween-80): 100 % of control
- T/C (dose: 25.0 mg/kg/injection, schedule: Q01DX009 (ip), vehicle: saline): 106 % of control
- T/C (dose: 0.04 % in 0.5 ml injection vol, schedule: Q01DX009 (ip), vehicle: water): 102 % of control and 108 % of control
- T/C [1]: 104 % of control
- T/C (dose: 50.0 mg/kg/injection, schedule: Q#A X018 (ip), vehicle: saline): 99 % of control
- T/C (dose: 0.08 % in 0.5 ml injection vol, schedule: Q01DX009 (ip), vehicle: water): 100 % of control and 88 % of control
- T/C [2]: 101 % of control
- T/C (dose: 100.0 mg/kg/injection, schedule: Q#A X018 (ip), vehicle: saline): 105 % of control
- T/C (dose: 0.16 % in 0.5 ml injection vol, schedule: Q01DX009 (ip), vehicle: water): 88 % of control
- T/C [3]: 110 % of control and 97 % of control
- T/C (dose: 200.0 mg/kg/injection, schedule: Q#A X018 (ip), vehicle: saline): 97 % of control
- T/C (dose: 0.31 % in 0.5 ml injection vol, schedule: Q01DX009 (ip), vehicle: water): 88 % of control
- T/C (dose: 400.0 mg/kg/injection, schedule: Q01DX009 (ip), vehicle: saline): 95 % of control
- T/C (dose: 400.0 mg/kg/injection, schedule: Q#A X018 (ip), vehicle: saline): 87 % of control
- T/C (dose: 800.0 mg/kg/injection, schedule: Q01DX009 (ip), vehicle: saline): 103 % of control

Compound: O=P(c1ccccc1)(N1CC1)N1CC1
- T/C (dose: 15.0 mg/kg/injection, schedule: Q04DX003 (ip), vehicle: saline): 118 % of control
- T/C (dose: 30.0 mg/kg/injection, schedule: Q04DX003 (ip), vehicle: saline): 122 % of control

Compound: Cc1ccc(N/N=c2\c3nc4ccccc4nc2n(-c2ccccc2C)c(=S)n3-c2ccccn2)cc1
- T/C [4]: 100 % of control
- T/C [5]: 96 % of control

Compound: CC(=NCCN=C(C)c1ccc(Br)cc1)c1ccc(Br)cc1
- T/C [6]: 91 % of control
- T/C [7]: 92 % of control
- T/C [8]: 91 % of control

Compound: O=C(c1cccnc1)N(Cc1ccccc1)C(=O)c1cccnc1
- T/C (dose: 25.0 mg/kg/injection, schedule: Q01DX001 (ip), vehicle: saline with Tween-80): 99 % of control
- T/C (dose: 50.0 mg/kg/injection, schedule: Q01DX001 (ip), vehicle: saline with Tween-80): 106 % of control
- T/C (dose: 100.0 mg/kg/injection, schedule: Q01DX001 (ip), vehicle: saline with Tween-80): 100 % of control
- T/C (dose: 200.0 mg/kg/injection, schedule: Q01DX001 (ip), vehicle: saline with Tween-80): 106 % of control

Compound: Nc1ccc(O)c(N)c1
- T/C (dose: 0.78 mg/kg/injection, schedule: Q01DX009 (ip), vehicle: saline): 99 % of control
- T/C (dose: 1.56 mg/kg/injection, schedule: Q01DX009 (ip), vehicle: saline): 96 % of control
- T/C (dose: 3.12 mg/kg/injection, schedule: Q01DX009 (ip), vehicle: saline): 102 % of control
- T/C (dose: 6.25 mg/kg/injection, schedule: Q01DX009 (ip), vehicle: saline): 105 % of control

Compound: COC1OC2COC(c3ccccc3)OC2C(N)C1O (stereo unspecified)
- T/C [4]: 106 % of control
- T/C [5]: 101 % of control
- T/C (dose: 200.0 mg/kg/injection, schedule: Q01DX005 (ip), vehicle: saline with Tween-80): 104 % of control

Compound: O=C(O)c1ccc2c3c(ncnc13)-c1ccccc1C2=O
- T/C [9]: 103 % of control
- T/C [10]: 111 % of control and 96 % of control
- T/C (dose: 25.0 mg/kg/injection, schedule: Q01DX009 (ip), vehicle: Klucel (hydroxypropylcellulose) (HPC)): 112 % of control and 96 % of control
- T/C [11]: 105 % of control and 109 % of control and 111 % of control
- T/C [12]: 100 % of control
- T/C [13]: 109 % of control

Compound: O=c1cc(F)cc[nH]1
- T/C [14]: 103 % of control
- T/C [15]: 104 % of control
- T/C [16]: 109 % of control

Compound: CCSc1ccc(N2C(N)=NC(N)=NC2(C)C)cc1
- T/C (dose: 6.25 mg/kg/injection, schedule: Q01DX005 (ip), vehicle: saline with Tween-80): 103 % of control
- T/C [17]: 103 % of control
- T/C [18]: 118 % of control

Compound: Cc1ccc(S(=O)(=O)N2CC3CC(C2)C(=O)NC3=O)cc1
- T/C [11]: 104 % of control
- T/C [12]: 107 % of control
- T/C [13]: 92 % of control

Compound: CNC(=O)OCc1c(COC(=O)NC)c(-c2ccc(SC)cc2)n(C)c1C
- T/C (dose: 3.13 mg/kg/injection, schedule: Q01DX009 (ip), vehicle: distilled water + Tween-80): 187 % of control
- T/C (dose: 12.5 mg/kg/injection, schedule: Q01DX009 (ip), vehicle: distilled water + Tween-80): 152 % of control
- T/C [19]: 150 % of control

Compound: CNc1ccc([N+](=O)[O-])cc1/C([O-])=C\[S+](C)(C)=O
- T/C (dose: 100.0 mg/kg/injection, schedule: Q04DX003 (ip), vehicle: saline): 97 % of control
- T/C (dose: 200.0 mg/kg/injection, schedule: Q04DX003 (ip), vehicle: saline): 106 % of control
- T/C (dose: 400.0 mg/kg/injection, schedule: Q04DX003 (ip), vehicle: saline): 97 % of control

Compound: CC(C(N)C(=O)NC(C(=O)O)C1OC(n2ccc(=O)[nH]c2=O)C(O)C1O)C(O)c1ccc(O)cn1 (stereo unspecified)
- T/C [20]: 100 % of control
- T/C [14]: 103 % of control
- T/C [15]: 100 % of control

Compound: Cc1cc(C)cc(C(C)(C)C)c1
- T/C (dose: 100.0 mg/kg/injection, schedule: Q04DX003 (ip), vehicle: saline with Tween-80): 100 % of control
- T/C (dose: 200.0 mg/kg/injection, schedule: Q04DX003 (ip), vehicle: saline with Tween-80): 100 % of control

Compound: O=C1C=C(Nc2ccccc2N=C2C(N3C4=CCc5ccccc5C4=Nc4ccccc43)=CC(=O)c3ccccc32)C(=O)c2ccccc21
- T/C [1]: 89 % of control
- T/C [2]: 91 % of control
- T/C [3]: 100 % of control

Compound: NC1CCCCCCC1
- T/C [14]: 94 % of control
- T/C [15]: 103 % of control
- T/C [16]: 117 % of control

Compound: Cc1ccc(S(=O)(=O)N/N=C/C(Br)=C(/Br)C(=O)O)cc1
- T/C (dose: 25.0 mg/kg/injection, schedule: Q01DX009 (ip), vehicle: distilled water + Tween-80): 154 % of control and 171 % of control
- T/C [19]: 157 % of control and 166 % of control

Compound: CC1(C)OC(=O)C(=CN(C2CCCCC2)C2CCCCC2)C(=O)O1
- T/C (dose: 60.0 mg/kg/injection, schedule: Q01DX005 (ip), vehicle: Klucel (hydroxypropylcellulose) (HPC)): 96 % of control
- T/C (dose: 120.0 mg/kg/injection, schedule: Q01DX005 (ip), vehicle: Klucel (hydroxypropylcellulose) (HPC)): 86 % of control

Compound: [Cl][Mn][Cl].[NH-]NP(=S)(N[NH-])Oc1ccccc1.[NH-]NP(=S)(N[NH-])Oc1ccccc1
- T/C (dose: 12.5 mg/kg/injection, schedule: Q01DX005 (ip), vehicle: saline): 99 % of control
- T/C [20]: 100 % of control
- T/C [14]: 108 % of control

Compound: O=CC(=C\c1cccs1)/C(C=O)=C\c1cccs1
- T/C [17]: 107 % of control
- T/C [18]: 108 % of control
- T/C [4]: 108 % of control and 114 % of control
- T/C [5]: 109 % of control

Compound: CCN(CC)CCNc1cccc2c(C)cc(=O)[nH]c12
- T/C [4]: 103 % of control
- T/C [5]: 101 % of control

Compound: Clc1cccc2c(-c3ccccc3)c3cccc(Cl)c3cc12
- T/C [6]: 101 % of control
- T/C [7]: 97 % of control
- T/C [8]: 96 % of control

Compound: Cc1ccc(CNc2ccc(I)cc2)cc1
- T/C (dose: 100.0 mg/kg/injection, schedule: Q01DX009 (ip), vehicle: other): 104 % of control
- T/C (dose: 200.0 mg/kg/injection, schedule: Q01DX009 (ip), vehicle: other): 95 % of control
- T/C (dose: 400.0 mg/kg/injection, schedule: Q01DX009 (ip), vehicle: other): 95 % of control

Compound: CC1=NNC(=O)C1(Br)Br
- T/C (dose: 3.13 mg/kg/injection, schedule: Q01DX009 (ip), vehicle: Klucel (hydroxypropylcellulose) (HPC)): 90 % of control
- T/C [9]: 100 % of control
- T/C [10]: 100 % of control
